Where two headings read alike, the source gives them in different places.
Experiments:
[1] = tested on: P388 murine leukemia cells; assay: In vitro cytotoxicity, one-hour exposure, clonogenic survival of P388 cells; format: cell-based; conditions: Mus musculus, read-out: in vitro cytotoxicity IC50, 1 hr exp.
In short: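 For continuous exposure, log-phase P388 murine leukemia cells were co-incubated with a range of compound concentrations for 48 hours and total cells counted on a Coulter counter. For one-hour exposure, survival was scored as soft-agar colonies after 7-10 days at 37° C and 5% CO2. Survival is expressed relative to untreated control.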

human topoisomerase II = molecular target: T1, human topoisomerase II (Homo sapiens, UniProt P11388); assay: Mammalian topoisomerase II inhibition assay (topo II covalently attached to DNA, relative to mAMSA); format: biochemical; conditions: read-out: topo II inh. EC50
T1 construct: Topo II was purified from late log phase suspension cultures of HeLa WIS; endogenous in cells; host or cells: HeLa WIS
T1 sequence (P11388 whole entry): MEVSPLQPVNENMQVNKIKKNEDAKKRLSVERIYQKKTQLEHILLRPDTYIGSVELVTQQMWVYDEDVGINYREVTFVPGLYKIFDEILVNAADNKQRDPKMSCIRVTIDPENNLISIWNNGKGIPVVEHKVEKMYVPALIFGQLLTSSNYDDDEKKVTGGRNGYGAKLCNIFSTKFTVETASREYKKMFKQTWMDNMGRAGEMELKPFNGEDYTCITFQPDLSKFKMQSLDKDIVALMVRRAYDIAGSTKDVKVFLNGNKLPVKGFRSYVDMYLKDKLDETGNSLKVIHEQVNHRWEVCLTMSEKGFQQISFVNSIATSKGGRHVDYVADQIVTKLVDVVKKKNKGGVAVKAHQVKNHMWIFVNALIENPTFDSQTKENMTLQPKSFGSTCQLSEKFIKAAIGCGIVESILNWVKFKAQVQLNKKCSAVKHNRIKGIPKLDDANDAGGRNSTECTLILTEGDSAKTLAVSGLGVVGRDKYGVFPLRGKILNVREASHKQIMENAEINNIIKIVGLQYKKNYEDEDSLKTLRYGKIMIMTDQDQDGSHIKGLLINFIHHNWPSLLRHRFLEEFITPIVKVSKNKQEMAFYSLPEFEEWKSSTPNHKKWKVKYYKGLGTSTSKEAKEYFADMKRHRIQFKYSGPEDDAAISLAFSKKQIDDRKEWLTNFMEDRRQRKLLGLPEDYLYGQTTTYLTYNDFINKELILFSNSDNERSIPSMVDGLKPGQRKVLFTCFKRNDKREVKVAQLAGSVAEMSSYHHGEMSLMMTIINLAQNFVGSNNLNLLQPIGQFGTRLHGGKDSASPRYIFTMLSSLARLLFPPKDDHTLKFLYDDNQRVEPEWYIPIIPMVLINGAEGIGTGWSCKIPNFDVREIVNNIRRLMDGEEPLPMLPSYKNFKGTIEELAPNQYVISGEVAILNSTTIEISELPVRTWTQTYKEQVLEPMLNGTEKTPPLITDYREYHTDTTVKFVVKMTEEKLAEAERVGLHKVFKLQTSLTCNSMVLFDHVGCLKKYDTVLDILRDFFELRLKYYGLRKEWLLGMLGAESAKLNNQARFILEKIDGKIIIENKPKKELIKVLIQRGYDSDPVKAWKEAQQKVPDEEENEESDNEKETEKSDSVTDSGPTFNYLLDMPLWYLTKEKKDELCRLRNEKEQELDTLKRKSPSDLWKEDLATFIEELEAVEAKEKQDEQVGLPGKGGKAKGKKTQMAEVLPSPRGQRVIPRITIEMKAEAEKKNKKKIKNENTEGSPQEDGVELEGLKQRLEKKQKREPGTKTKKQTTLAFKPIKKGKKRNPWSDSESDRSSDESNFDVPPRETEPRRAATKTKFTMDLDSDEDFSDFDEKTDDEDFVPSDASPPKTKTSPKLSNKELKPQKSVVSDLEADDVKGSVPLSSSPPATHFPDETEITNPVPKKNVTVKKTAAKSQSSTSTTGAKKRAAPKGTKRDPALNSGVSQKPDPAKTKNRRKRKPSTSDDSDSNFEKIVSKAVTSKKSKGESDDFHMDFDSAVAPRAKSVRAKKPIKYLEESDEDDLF
In short: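 HeLa-purified human topo II was reacted with compound for 20 min at 37 °C, and covalent topo II-DNA complexes were recovered by SDS/KCl precipitation and scintillation counting, in duplicate. Compounds were screened at 2, 20 and 200 μg/ml, then titrated. Complex formation is scaled to the maximum at 10 μg/ml mAMSA.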

[2] = footnote c: bell-shaped dose response curve noted, 50% of maximal effect of mAMSA
[3] = conc. achieving 50% of maximal effect of mAMSA, topo II from HeLa cells

| SMILES | IC50 ([1]; P388, 1 hr exposure) [nM] | EC50 (human topoisomerase II; [2]) [nM] | IC50 ([1]; P388, 1 h) [nM] | EC50 (human topoisomerase II; [3]) [nM] |
| --- | --- | --- | --- | --- |
| Cc1cc(-c2c(F)cc3c4nn(CCNCCO)c(=O)c-4cn(C4CC4)c3c2F)cc(C)n1 [Example 17] | 1300 | 3300 | – | – |
| Cc1cc(-c2c(F)cc3c4nn(CCN(C)C)c(=O)c-4cn(C4CC4)c3c2F)cc(C)n1.O=C(O)/C=C/C(=O)O [Example 1, 5-Cyclopropyl-6,8-difluoro-2,5-dihydro-2-[2-(dimethylamino)-ethyl]-7-(2,6-dimethyl-4-pyridinyl)-3H-pyrazolo[4,3-c]quinolin-3-one (E)-2-butendioate (1:1)] | – | 2600 | 260 | – |
| Cc1cc(-c2c(F)cc3c4nn([C@H]5CC[C@H](N(C)C)CC5)c(=O)c-4cn(C4CC4)c3c2F)cc(C)n1 [Example 51b] | 260 | – | – | 4400 |
| Cc1cc(-c2c(F)cc3c4nn(CCCN(C)C)c(=O)c-4cn(C4CC4)c3c2F)cc(C)n1 [Example 14] | 160 | – | – | 1700 |
| Cc1cc(-c2c(F)cc3c4nn([C@H]5CC[C@@H](N(C)C)CC5)c(=O)c-4cn(C4CC4)c3c2F)cc(C)n1 [Example 51a] | 67 | – | – | 1700 |
| Cc1cc(-c2c(F)cc3c4nn([C@H]5CC[C@@H](N)CC5)c(=O)c-4cn(C4CC4)c3c2F)cc(C)n1 [Example 56a, 2-(Cis-4-Aminocyclohexyl)-5-cyclopropyl-6,8-difluoro-2,5-dihydro-7-(2,6-dimethyl-4-pyridinyl)-3H-pyrazolo-[4,3-c]quinolin-3-one] | 440 | – | – | 500 |
